“And” between values parts separate entries of the source, which are not always exact repeats. Equal values may be shown once.
Columns and labels:
SCPMA = assay: In-water applied herbicidal mixtures, greenhouse, transplanted paddy rice weeds; type: in vivo
Protocol: (§1) Weed seeds or nutlets of the desired test plant species were planted in puddled soil (mud) prepared by mixing a shredded, non-sterilized mineral soil (50.5 percent silt, 25.5 percent clay, and 24 percent sand, with a pH of about 7.6 and an organic matter content of about 2.9 percent) and water at a 1:1 volumetric ratio. The prepared mud was dispensed in 365 mL aliquots into 16-ounce (oz.) non-perforated plastic pots with a surface area of 86.59 square centimeters (cm^2) leaving a headspace of 3 centimeters (cm) in each pot Mud was allowed to dry overnight prior to planting or transplanting. Rice seeds were planted in Sun Gro MetroMix® 306 planting mixture, which typically has a pH of 6.0 to 6.8 and an organic matter content of about 30 percent, in plastic plug trays. Seedlings at the second or third leaf stage of growth were transplanted into 840 mL of mud contained in 32-oz. non-perforated plastic pots with a surface area of 86.59 cm^2 4 days prior to herbicide application. The paddy was created by filling the headspace of the pots with 2.5 to 3 cm of water. When required to ensure good germination and healthy plants, a fungicide treatment and/or other chemical or physical treatment was applied. The plants were grown for 4-22 days in a greenhouse with an approximate 14 hr photoperiod which was maintained at about 29′C during the day and 26° C. during the night. Nutrients were added as Osmocote® (19:6:12, N:P:K^+ minor nutrients) at 2 g per 16-oz. pot and 4 g per 32-oz. pot. Water was added on a regular basis to maintain the paddy flood, and supplemental lighting was provided with overhead metal halide 1000-Watt lamps as necessary. The plants were employed for testing when they reached the first through fourth true leaf stage.
(§2) Treatments consisted of the acid or esters of 4-amino-3-chloro-5-fluoro-6-(4-chloro-2-fluoro-3-methoxy-phenyl)pyridine-2-carboxylic acid (compound A) each formulated as an SC (suspension concentrate) and various herbicidal components alone and in combination. Forms of compound A were applied on an acid equivalent basis.
(§3) Other herbicidal components were applied on an active ingredient basis and included acetolactate synthase (ALS)-inhibiting herbicides formulated as Permit® 75 WDG, pyrazosulfuron-ethyl formulated as Agreen® WG or Sirius® G, and VLCFA inhibiting herbicide esprocarb (technical grade material).
(§4) Treatment requirements for each compound or herbicidal component were calculated based upon the rates being tested, the concentration of active ingredient or acid equivalent in the formulation, an application volume of 2 mL per component per pot, and an application area of 86.59 cm^2 per pot.
(§5) For formulated compounds, a measured amount was placed in an individual 100 or 200 mL glass vial and was dissolved in a volume of 1.25% (v/v) Agri-Dex® crop oil concentrate to obtain application solutions.
(§6) For technical grade compounds, a weighed amount was placed in an individual 100 to 200 mL glass vial and was dissolved in a volume of acetone to obtain concentrated stock solutions. […] The concentrated stock solutions obtained were diluted with an equivalent volume of an aqueous mixture containing 2.5% (v/v) crop oil concentrate so that the final application solutions contained 1.25% (v/v) crop oil concentrate.
(§7) Applications were made by injecting with a pipetter appropriate amounts of the application solutions, individually and sequentially, into the aqueous layer of the paddy. Control plants were treated in the same manner with the solvent blank. Applications were made so that all treated plant material received the same concentrations of acetone and crop oil concentrate.
(§8) The treated plants and control plants were placed in a greenhouse as described above and water was added as needed to maintain a paddy flood. […]

BRAPP = assay: Post-emergence foliar-applied herbicidal mixtures, greenhouse, direct seeded rice weeds; type: in vivo
From the text: (§9) Seeds or nutlets of the desired test plant species were planted in a soil matrix prepared by mixing a loam or sandy loam soil (e.g., 28.6 percent silt, 18.8 percent clay, and 52.6 percent sand, with a pH of about 5.8 and an organic matter content of about 1.8 percent) and calcareous grit in an 80 to 20 ratio. The soil matrix was contained in plastic pots with a volume of 1 quart and a surface area of 83.6 square centimeters (cm^2). When required to ensure good germination and healthy plants, a fungicide treatment and/or other chemical or physical treatment was applied. The plants were grown for 8-22 days in a greenhouse with an approximate 14 hr photoperiod which was maintained at about 29° C. during the day and 26° C. during the night. Nutrients (Peters Excel® 15-5-15 5-Ca 2-Mg and iron chelate) were applied in the irrigation solution as needed and water was added on a regular basis. Supplemental lighting was provided with overhead metal halide 1000-Watt lamps as necessary. The plants were employed for testing when they reached the first through fourth true leaf stage.
as §2, with “(Compound A),” for “(compound A)”, “concentrate),” for “concentrate)”
(§10) Other herbicidal components were applied on an active ingredient basis and included the acetolactate synthase (ALS)-inhibiting herbicides halosulfuron-methyl formulated as Permit® 75 WDG, pyrazosulfuron-ethyl formulated as Agreen® WG or Sirius® G, and the VLCFA inhibiting herbicide esprocarb (technical grade material).
(§11) Treatment requirements were calculated based upon the rates being tested, the concentration of active ingredient or acid equivalent in the formulation, and a 12 mL application volume at a rate of 187 L/ha.
(§12) For treatments comprised of formulated compounds, measured amounts of compounds were placed individually in 25 mL glass vials and diluted in a volume of 1.25% (v/v) Agri-Dex® crop oil concentrated to obtain 12× stock solutions. […] Application solutions were prepared by adding an appropriate amount of each stock solution (e.g., 1 mL) and diluted to the appropriate final concentrations with the addition of 10 mL of an aqueous mixture of 1.25% (v/v) crop oil concentrate so that the final spray solutions contained 1.25+/−0.05% (v/v) crop oil concentrate.
(§13) For treatments comprised of technical compounds, weighed amounts can be placed individually in 25 mL glass vials and dissolved in a volume of 97:3 v/v acetone/DMSO to obtain 12× stock solutions. […] Application solutions can be prepared by adding an appropriate amount of each stock solution (e.g., 1 mL) and diluted to the appropriate final concentrations with the addition of 10 mL of an aqueous mixture of 1.5% (v/v) crop oil concentrate so that the final spray solutions contain 1.25% (v/v) crop oil concentrate. When technical materials are used, the concentrated stock solutions can be added to the spray solutions so that the final acetone and DMSO concentrations of the application solutions are 16.2% and 0.5%, respectively.
(§14) For treatments comprised of formulated and technical compounds, weighed amounts of the technical materials were placed individually in 25 mL glass vials and dissolved in a volume of 97:3 v/v acetone/DMSO to obtain 12× stock solutions, and measured amounts of the formulated compounds were placed individually in 25 mL glass vials and diluted in a volume of 1.5% (v/v) crop oil concentrate or water to obtain 12× stock solutions. […] Application solutions were prepared by adding an appropriate amount of each stock solution (e.g., 1 mL) and diluted to the appropriate final concentrations with the addition of an appropriate amount of an aqueous mixture of 1.5% (v/v) crop oil concentrate so that the final spray solutions contained 1.25% (v/v) crop oil concentrate. […]

FIMMI = assay: In-water applied herbicidal mixtures, greenhouse, transplanted paddy rice weeds; type: in vivo, Fimbristylis miliacea (L.) Vahl; conditions: 4.38 g ae/ha
Protocol: as §1, §2, §3, §4, §5, §6
Applications were made by injecting with a pipetter appropriate amounts of the application solutions, individually and sequentially, into the aqueous layer of the paddy. […]

ECHOR = assay: as above; type: in vivo, Echinochloa oryzoides (Ard.) Fritsch
Protocol: as §1, §2, §3, §4, §5, §6, §7, §8

DIGSA = assay: Post-emergence foliar-applied herbicidal mixtures, greenhouse, direct seeded rice weeds; type: in vivo, Digitaria sanguinalis (L.) Scop.
From the text: as §9
as §2, with “(Compound A),” for “(compound A)”, “concentrate),” for “concentrate)”
as §10, §11, §12, §13, §14

LEFCH [1] = assay: In-water applied herbicidal mixtures, greenhouse, transplanted paddy rice weeds; type: in vivo, Leptochloa chinensis (L.) Nees; conditions: 4.38 g ae/ha
Protocol: as §1, with “Water was added on a regular basis to maintain the paddy flood, and supplemental lighting was provided with overhead metal halide 1000-Watt lamps as necessary. The plants were employed for testing when they reached the first through fourth true leaf stage.” left out
as §4
For formulated compounds, a measured amount was placed in an individual 100 or 200 mL glass vial and was dissolved in a volume of 1.25% (v/v) Agri-Dex® crop oil concentrate to obtain application solutions. […]

SCPJU = assay: Post-emergence foliar-applied herbicidal mixtures, greenhouse, direct seeded rice weeds; type: in vivo, Schoenoplectus juncoides (Roxb.) Palla; conditions: 8.75 g ae/ha
From the text: as §9, with “stage. […]” for “stage.”
as §11
(§15) For treatments comprised of formulated compounds, measured amounts of compounds were placed individually in 25 mL glass vials and diluted in a volume of 1.25% (v/v) Agri-Dex® crop oil concentrated to obtain 12× stock solutions. […]
(§16) For treatments comprised of formulated and technical compounds, weighed amounts of the technical materials were placed individually in 25 mL glass vials and dissolved in a volume of 97:3 v/v acetone/DMSO to obtain 12× stock solutions, and measured amounts of the formulated compounds were placed individually in 25 mL glass vials and diluted in a volume of 1.5% (v/v) crop oil concentrate or water to obtain 12× stock solutions. […]

CYPRO = assay: In-water applied herbicidal mixtures, greenhouse, transplanted paddy rice weeds; type: in vivo, Cyperus rotundus L.
Protocol: as §1, §2, §3, §4, §5, §6, §7, §8

CYPIR = assay: Post-emergence foliar-applied herbicidal mixtures, greenhouse, direct seeded rice weeds; type: in vivo, Cyperus iria L.
From the text: as §9
as §2, with “(Compound A),” for “(compound A)”, “concentrate),” for “concentrate)”
as §10, §11, §15, §16

LEFCH [2] = assay: as above; type: in vivo, Leptochloa chinensis (L.) Nees
From the text: as §9
as §2, with “(Compound A),” for “(compound A)”, “concentrate),” for “concentrate)”
as §10, §11, §12, §13, §14

Which results are given for COc1c(Cl)ccc(-c2nc(C(=O)OCc3ccccc3)c(Cl)c(N)c2F)c1F [Compound A Benzyl Ester]?
Visual Weed Control (%) - 22 DAA SCPMA Obs (SCPMA; 4.38 g ae/ha): 0%; Visual Weed Control (%) - 22 DAA SCPMA Obs (SCPMA; 8.75 g ae/ha): 0%; Visual Weed Control (%) - 22 DAA SCPMA Obs (SCPMA; 17.5 g ae/ha): 0%; Visual Weed Control (%) - 20 DAA SCPMA Obs (SCPMA; 70 g ae/ha): 0%; Visual Weed Control (%) - 20 DAA BRAPP Obs (BRAPP; 4.38 g ae/ha): 40%; Visual Weed Control (%) - 21 DAA BRAPP Obs (BRAPP; 4.38 g ae/ha): 50%; Visual Weed Control (%) - 20 DAA BRAPP Obs (BRAPP; 8.75 g ae/ha): 70%; Visual Weed Control (%) - 21 DAA FIMMI Obs (FIMMI): 20%; Visual Weed Control (%) - 21 DAA ECHOR Obs (ECHOR; 4.38 g ae/ha): 0%; Visual Weed Control (%) - 21 DAA ECHOR Obs (ECHOR; 8.75 g ae/ha): 10%; Visual Weed Control (%) - 20 DAA ECHOR Obs (ECHOR; 35 g ae/ha): 73%; Visual Weed Control (%) - 21 DAA DIGSA Obs (DIGSA; 17.5 g ae/ha): 23%; Visual Weed Control (%) - 21 DAA DIGSA Obs (DIGSA; 35 g ae/ha): 38%; Visual Weed Control (%) - 22 DAA LEFCH Obs (LEFCH [1]): 0%; Visual Weed Control (%) - 22 DAA SCPJU Obs (SCPJU): 80%; Visual Weed Control (%) - 21 DAA CYPRO Obs (CYPRO; 4.38 g ae/ha): 20% and 30%; Visual Weed Control (%) - 21 DAA CYPRO Obs (CYPRO; 8.75 g ae/ha): 65% and 60%; Visual Weed Control (%) - 22 DAA CYPIR Obs (CYPIR; 4.38 g ae/ha): 25%; Visual Weed Control (%) - 22 DAA CYPIR Obs (CYPIR; 8.75 g ae/ha): 50%; Visual Weed Control (%) - 20 DAA LEFCH Obs (LEFCH [2]; 4.38 g ae/ha): 0%; Visual Weed Control (%) - 20 DAA LEFCH Obs (LEFCH [2]; 8.75 g ae/ha): 20%; Visual Weed Control (%) - 20 DAA LEFCH Obs (LEFCH [2]; 17.5 g ae/ha): 40%

Source: US8809232B2, “Herbicidal compositions comprising 4-amino-3-chloro-5-fluoro-6-(4-chloro-2-fluoro-3-methoxyphenyl) pyridine-2-carboxylic acid or a derivative thereof and halosulfuron, pyrazosulfuron and esprocarb” (Dow Agrosciences LLC, priority 2012, dated 2014)
